Tests used:
OATP1A2 = molecular target: T1, OATP1A2 (Homo sapiens, UniProt P46721); assay: Uptake in CHO-OATP1A2 overexpressing cells; format: cell-based; conditions: CHO-OATP1A2 vs mock, 10 min; IMM-H004G 10 μmol/L
T1 construct: host or cells: CHO
T1 sequence (P46721 1-670): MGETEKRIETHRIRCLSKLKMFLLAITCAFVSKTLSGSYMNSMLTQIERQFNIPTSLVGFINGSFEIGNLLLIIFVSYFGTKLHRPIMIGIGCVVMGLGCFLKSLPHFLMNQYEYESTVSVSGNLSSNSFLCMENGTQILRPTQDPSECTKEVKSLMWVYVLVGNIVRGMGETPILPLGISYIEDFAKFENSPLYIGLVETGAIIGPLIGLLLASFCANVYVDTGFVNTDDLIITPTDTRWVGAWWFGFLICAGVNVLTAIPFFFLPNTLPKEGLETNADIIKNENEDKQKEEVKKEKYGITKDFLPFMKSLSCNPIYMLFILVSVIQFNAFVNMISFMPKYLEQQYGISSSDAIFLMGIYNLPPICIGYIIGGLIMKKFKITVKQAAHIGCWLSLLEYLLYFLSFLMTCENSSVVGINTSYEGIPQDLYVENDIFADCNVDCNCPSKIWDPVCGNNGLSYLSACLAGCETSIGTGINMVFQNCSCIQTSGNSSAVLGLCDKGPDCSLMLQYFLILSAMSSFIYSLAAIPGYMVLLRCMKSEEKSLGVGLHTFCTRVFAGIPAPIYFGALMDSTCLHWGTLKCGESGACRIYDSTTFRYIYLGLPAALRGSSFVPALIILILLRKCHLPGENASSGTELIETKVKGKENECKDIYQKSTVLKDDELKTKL
From the text: (§1) CHO cells and MDCKⅡ cells were stably transfected with lentiviruses carrying human SCLO1A2 (encoding OATP1A2) and SCLO2B1 (encoding OATP2B1), respectively. Cell transfected with lentiviruses carrying empty vectors served as control. Lentiviral plasmid packages were obtained from OBiO Technology (Shanghai, China), and procedures followed the instructions of the virus manual. Stably transfected cells were routinely grown in a 100 mm dish in DMEM with 10% fetal bovine serum. Prior to the experiments, the seeding density of the overexpressing cells in 24-well plates was 4 × 10^5 cells per well, and the medium was supplemented with 2 mM sodium butyrate for 24 h. The cultured cells were washed twice with prewarmed HBSS after removing the medium and then treated with 10 μmol/L IMM-H004G and 100 μmol/L rifampicin (or an equal amount of solvent dimethyl sulfoxide) for 10 min. After incubation, the cells were washed four times with cold HBSS. Follow-up sample processing procedures were as described in Section 2.3.1. E17βG (5 μmol/L) and rosuvastatin (10 μmol/L) were used as positive substrates in CHO-OATP1A2 and MDCKⅡ-OATP2B1 cells, respectively. The MDCKⅡ-MDR1 cells were previously established by our laboratory.

OATP2B1 = molecular target: T2, OATP2B1 (Homo sapiens, UniProt O94956); assay: Uptake in MDCKⅡ-OATP2B1 overexpressing cells; format: cell-based; conditions: MDCKⅡ-OATP2B1 vs mock, 10 min; IMM-H004G 10 μmol/L
T2 construct: host or cells: MDCKII
T2 sequence (O94956 1-709): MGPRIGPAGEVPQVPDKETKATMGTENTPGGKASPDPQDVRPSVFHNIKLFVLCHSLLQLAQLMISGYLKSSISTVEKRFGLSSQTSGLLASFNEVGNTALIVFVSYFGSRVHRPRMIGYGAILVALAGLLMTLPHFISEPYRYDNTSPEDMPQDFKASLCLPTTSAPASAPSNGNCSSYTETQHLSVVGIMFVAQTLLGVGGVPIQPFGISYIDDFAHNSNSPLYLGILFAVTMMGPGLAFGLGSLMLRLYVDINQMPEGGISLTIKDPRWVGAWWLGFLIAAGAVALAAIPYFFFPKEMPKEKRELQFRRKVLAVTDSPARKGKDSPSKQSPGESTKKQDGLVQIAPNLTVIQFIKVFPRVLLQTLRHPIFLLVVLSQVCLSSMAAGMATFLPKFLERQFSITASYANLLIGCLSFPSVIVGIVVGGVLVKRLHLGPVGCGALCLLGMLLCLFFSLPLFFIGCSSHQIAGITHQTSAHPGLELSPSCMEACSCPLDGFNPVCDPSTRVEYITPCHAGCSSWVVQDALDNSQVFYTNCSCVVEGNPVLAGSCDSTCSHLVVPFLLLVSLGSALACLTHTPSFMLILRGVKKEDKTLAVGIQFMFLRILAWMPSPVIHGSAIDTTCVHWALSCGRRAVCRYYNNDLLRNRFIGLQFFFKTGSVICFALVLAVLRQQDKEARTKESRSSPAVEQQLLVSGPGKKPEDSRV
From the text: as §1

hCMEC/D3 cells = assay: In vitro metabolism in human brain cells (hCMEC/D3); format: in vitro ADME; conditions: IMM-H004 1–100 μmol/L
Procedure: (§2) SH-SY5Y, HEB, and hCMEC/D3 cells were utilized to investigate the in vitro metabolism of IMM-H004 and IMM-H004G in the brain. SH-SY5Y and HEB cells were cultured routinely in Dulbecco’s modified Eagle’s medium (DMEM) containing 10% fetal bovine serum and a 100 U/mL penicillin–100 μg/mL streptomycin solution. hCMEC/D3 cells were seeded on collagen type I coated 24-well plates and cultured in EndoGRO™-MV complete medium following the manufacturer’s guidelines. The cells were incubated at 37 °C, with 5% CO2, and were maintained in a humidified environment. Once the confluence reached 70–80%, the cells were digested using a 0.25% trypsin–EDTA solution, centrifuged at 200× g for 5 min, and then resuspended in a fresh culture medium. For each experiment, after seeding and 24 h incubation, the cells were washed twice with a prewarmed culture medium, and then IMM-H004 or IMM-H004G (1–100 μmol/L) dissolved in the culture medium was added. Incubation was carried out at 37 °C for 5 h or 24 h. After incubation, the supernatants were collected. Subsequently, the cells were washed with cold HBSS three times and lysed in a RIPA lysis buffer (Beyotime Inc., Shanghai, China). The concentrations of IMM-H004 and IMM-H004G were determined by liquid chromatography with tandem mass spectrometry (LC-MS/MS).

HEB cells = assay: In vitro metabolism in human brain cells (HEB); format: in vitro ADME; conditions: IMM-H004 1–100 μmol/L, up to 5 h
Procedure: as §2

| Structure (SMILES) | uptake increase in OATP1A2-overexpressing cells compared to control cells (OATP1A2) [fold] | uptake increase in OATP2B1-overexpressing cells compared to control cells (OATP2B1) [fold] | production of IMM-H004G from IMM-H004 (hCMEC/D3 cells) | production of IMM-H004G from IMM-H004 (HEB cells) |
| --- | --- | --- | --- | --- |
| COc1cc(OC2OC(C(=O)O)C(O)C(O)C2O)cc2oc(=O)c(N3CCN(C)CC3)c(C)c12 (stereo not shown) [IMM-H004G] | 9.7 | 190 |  |  |
| COc1cc(O)cc2oc(=O)c(N3CCN(C)CC3)c(C)c12 [IMM-H004] |  |  | not detected | depended on both time and concentration |

Source: publication PMC10975012, “The Active Glucuronide Metabolite of the Brain Protectant IMM-H004 with Poor Blood–Brain Barrier Permeability Demonstrates a High Partition in the Rat Brain via Multiple Mechanisms” (Pharmaceutics, 2024)
